Our source for the IC50 values is BindingDB's records for doi:10.3109/14756360903179377 (Graduate University of Chinese Academy of Sciences, 2010).

Chain of Fatty acid synthase (P12276 whole entry): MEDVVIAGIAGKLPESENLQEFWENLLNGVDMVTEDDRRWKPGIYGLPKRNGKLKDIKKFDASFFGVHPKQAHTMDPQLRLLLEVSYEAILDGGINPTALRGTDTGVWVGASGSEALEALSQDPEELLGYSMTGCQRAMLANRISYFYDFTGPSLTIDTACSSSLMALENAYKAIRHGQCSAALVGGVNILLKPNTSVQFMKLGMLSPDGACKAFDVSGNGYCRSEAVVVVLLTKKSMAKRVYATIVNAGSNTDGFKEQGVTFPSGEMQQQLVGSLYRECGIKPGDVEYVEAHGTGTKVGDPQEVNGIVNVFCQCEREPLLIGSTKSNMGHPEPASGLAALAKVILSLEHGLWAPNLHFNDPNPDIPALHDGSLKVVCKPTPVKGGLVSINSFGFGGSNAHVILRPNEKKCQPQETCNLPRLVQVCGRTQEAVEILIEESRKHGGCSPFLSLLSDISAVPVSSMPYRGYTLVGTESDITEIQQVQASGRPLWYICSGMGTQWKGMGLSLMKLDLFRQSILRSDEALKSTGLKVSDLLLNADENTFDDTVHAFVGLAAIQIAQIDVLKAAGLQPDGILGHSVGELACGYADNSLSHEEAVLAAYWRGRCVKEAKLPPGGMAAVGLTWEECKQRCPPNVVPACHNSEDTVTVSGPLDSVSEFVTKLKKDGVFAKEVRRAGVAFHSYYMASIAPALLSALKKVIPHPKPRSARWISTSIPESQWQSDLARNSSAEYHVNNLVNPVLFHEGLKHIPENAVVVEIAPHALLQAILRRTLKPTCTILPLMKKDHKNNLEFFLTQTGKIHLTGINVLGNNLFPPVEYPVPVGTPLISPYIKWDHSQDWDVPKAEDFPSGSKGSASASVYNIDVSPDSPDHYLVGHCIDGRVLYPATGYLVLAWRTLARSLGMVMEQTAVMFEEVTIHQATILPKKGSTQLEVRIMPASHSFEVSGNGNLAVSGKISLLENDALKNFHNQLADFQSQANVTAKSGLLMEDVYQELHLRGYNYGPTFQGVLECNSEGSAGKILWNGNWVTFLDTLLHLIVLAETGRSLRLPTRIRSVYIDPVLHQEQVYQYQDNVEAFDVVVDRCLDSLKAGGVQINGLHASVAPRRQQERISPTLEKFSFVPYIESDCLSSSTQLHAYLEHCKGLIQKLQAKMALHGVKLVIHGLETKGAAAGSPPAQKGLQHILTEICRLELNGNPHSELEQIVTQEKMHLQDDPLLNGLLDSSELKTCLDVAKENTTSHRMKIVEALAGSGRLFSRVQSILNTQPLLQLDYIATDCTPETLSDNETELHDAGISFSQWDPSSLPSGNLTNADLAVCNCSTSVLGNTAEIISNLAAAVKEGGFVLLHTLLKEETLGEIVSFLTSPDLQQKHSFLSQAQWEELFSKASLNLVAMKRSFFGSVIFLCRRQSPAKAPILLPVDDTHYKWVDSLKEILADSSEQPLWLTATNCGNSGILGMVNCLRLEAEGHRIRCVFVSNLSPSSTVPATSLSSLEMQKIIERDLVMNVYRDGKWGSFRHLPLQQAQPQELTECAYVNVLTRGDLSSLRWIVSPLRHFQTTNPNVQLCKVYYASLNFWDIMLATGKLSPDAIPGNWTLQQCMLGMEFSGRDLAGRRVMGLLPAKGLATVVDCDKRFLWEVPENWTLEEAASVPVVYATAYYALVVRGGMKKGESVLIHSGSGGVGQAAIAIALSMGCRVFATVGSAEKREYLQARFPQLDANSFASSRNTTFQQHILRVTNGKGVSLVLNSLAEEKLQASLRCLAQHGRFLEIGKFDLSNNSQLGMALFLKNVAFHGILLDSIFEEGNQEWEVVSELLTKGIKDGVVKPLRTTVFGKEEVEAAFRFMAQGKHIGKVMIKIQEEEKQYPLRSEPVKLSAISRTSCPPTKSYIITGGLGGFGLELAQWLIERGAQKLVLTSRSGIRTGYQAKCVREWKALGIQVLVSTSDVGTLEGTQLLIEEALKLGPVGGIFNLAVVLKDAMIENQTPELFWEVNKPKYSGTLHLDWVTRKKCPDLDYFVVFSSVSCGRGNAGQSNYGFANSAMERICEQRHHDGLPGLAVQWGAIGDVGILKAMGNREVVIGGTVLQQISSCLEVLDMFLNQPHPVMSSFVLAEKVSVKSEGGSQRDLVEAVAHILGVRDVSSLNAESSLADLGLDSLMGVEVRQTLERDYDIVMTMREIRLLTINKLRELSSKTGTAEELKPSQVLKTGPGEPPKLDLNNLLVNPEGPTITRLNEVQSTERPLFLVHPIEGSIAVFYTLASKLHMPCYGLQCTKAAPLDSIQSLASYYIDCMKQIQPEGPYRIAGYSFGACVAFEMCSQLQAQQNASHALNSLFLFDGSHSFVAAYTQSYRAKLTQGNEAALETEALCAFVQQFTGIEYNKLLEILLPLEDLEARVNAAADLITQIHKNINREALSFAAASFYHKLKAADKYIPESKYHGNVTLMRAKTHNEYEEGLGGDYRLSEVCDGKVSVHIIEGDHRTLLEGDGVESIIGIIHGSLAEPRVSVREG

In this assay the target is Fatty acid synthase (Gallus gallus, UniProt P12276). Put plainly: FAS Activity Assay. The conditions noted are these: pH 7; 37 °C. The method, then:
FAS activity was determined by monitoring the decrease in absorbence at 340 nm resulting from the oxidation of NADPH using an Amersham Pharmacia Ultrospec 4300 pro UV-Vis spectrophotometer at 37°C. The assay mixture contained 100 mM potassium phosphate buffer, pH 7.0, 1 mM EDTA (ethylenediaminetetraacetic acid), 2.5 μM acetyl-CoA, 10 μM malonyl-CoA, 32 μM NADPH, and 10 μg chicken liver FAS in a total volume of 2.0 mL [Tian et al., J. Biol. Chem., 260:11375-87]. Fast inhibition was determined by adding thioether to the reaction system before FAS initiated the reaction. The initial velocity was measured to calculate the remaining activity (RA) of FAS, and each assay was repeated three times.
`C=CCSSCC=C` [3-Allyldisulfanyl-propene] came in with a half-inhibitory concentration (IC50) of 145 µM.

With `C=CCSSSCC=C` [Diallyl trisulfide], the IC50 is 8.37 µM.

The compound `CSSC` [Dimethyl disulfide] showed an IC50 of 2210 µM.

Broadly, the IC50 is the concentration that gives 50% inhibition. Low readings indicate inhibition by little substance, high ones a need for much substance.
